The values that follow come from ChEMBL document CHEMBL1140121, “X-ray crystal structure of human heme oxygenase-1 in complex with 1-(adamantan-1-yl)-2-(1H-imidazol-1-yl)ethanone: a common binding mode for imidazole-based heme oxygenase-1 inhibitors” (J Med Chem, 2008).

The target in test [1] is T1, Heme oxygenase 1 (Homo sapiens) (UniProt P09601).
T1 sequence (whole entry): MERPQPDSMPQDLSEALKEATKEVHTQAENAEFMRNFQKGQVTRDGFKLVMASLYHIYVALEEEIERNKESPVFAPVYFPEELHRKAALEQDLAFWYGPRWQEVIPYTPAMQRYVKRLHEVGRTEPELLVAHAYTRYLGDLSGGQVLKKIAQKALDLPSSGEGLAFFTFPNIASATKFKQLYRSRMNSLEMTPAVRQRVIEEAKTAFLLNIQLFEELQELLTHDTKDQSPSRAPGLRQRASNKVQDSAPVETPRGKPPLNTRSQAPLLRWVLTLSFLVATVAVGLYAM
Description: Residual activity of human recombinant HO1 expressed in Escherichia coli DH5alpha assessed as remaining heme at 25 uM by spectrophotometry in absence of L-ascorbic acid relative to control.

Test [2] deals with T1, Heme oxygenase 1 (Homo sapiens). Description: Residual activity of human recombinant HO1 expressed in Escherichia coli DH5alpha assessed as remaining heme at 50 uM by spectrophotometry in absence of L-ascorbic acid relative to control.
Test [3] has the same target. Description: Inhibition of human recombinant HO1 expressed in Escherichia coli DH5alpha assessed as heme degradation at 25 uM by spectrophotometry in presence of L-ascorbic acid relative to control. Further details: scale not given: the % may be the effect or the level left.
For test [4] the target is unchanged. Description: Inhibition of human recombinant HO1 expressed in Escherichia coli DH5alpha assessed as heme degradation at 10 uM by spectrophotometry in presence of L-ascorbic acid relative to control.

Broadly, the residual activity is what remains of the control signal, in per cent. For `O=C(Cn1ccnc1)C12CC3CC(CC(C3)C1)C2`, the residual activity in test [1] amounted to 44%; in test [2] it was 54%.

As a reminder, the inhibition is the drop in the measured response relative to a control, in per cent. As to `Clc1ccc(CCC2(Cn3ccnc3)OCCO2)cc1`, the Activity in test [3] stood at 15%. The inhibition in test [4] worked out at 39%. The results for the residual activity in test [1] and in test [2] were 65% and 80%, respectively.
